From ChEMBL document CHEMBL5108023, “Design, synthesis and biological evaluation of rhein-piperazine-dithiocarbamate hybrids as potential anticancer agents” (Eur J Med Chem, 2022)
≈ marks a conversion by molar mass, not a printed value.

Tests used:
[1] = test system: WI-38; experiment: Antiproliferative activity against human WI-38 cells measured after 48 hrs by MTT assay; assay type: functional, cell-based; conditions: WI-38, 48 h
[2] = test system: A549; experiment: cells; conditions: Homo sapiens, A549, 48 h
[3] = Selectivity index, ratio IC50 for antiproliferative activity against human WI-38 cells over IC50 for antiproliferative activity against human A549 cells; assay type: toxicity, cell-based; conditions: WI-38 cells and A549 cells, read-out: Ratio IC50
[4] = test system: HeLa; experiment: Antiproliferative activity against human HeLa cells measured after 48 hrs by MTT assay; assay type: functional, cell-based
[5] = test system: Calu-1; experiment: Antiproliferative activity against human Calu-1 cells measured after 48 hrs by MTT assay; assay type: functional, cell-based; conditions: Calu-1, 48 h
[6] = test system: 786-0; experiment: Antiproliferative activity against human 786-0 cells measured after 48 hrs by MTT assay; assay type: functional, cell-based; conditions: 786-0, 48 h
[7] = Acute toxicity in female ICR mouse assessed as pathological changes in spleen at 6.25 to 50 mg/kg measured by H and E staining method; assay type: organism-based; conditions: in vivo, dose 6.25-50 mg/kg
[8] = test system: PC-9; experiment: Antiproliferative activity against human PC-9 cells measured after 48 hrs by MTT assay; assay type: functional, cell-based; conditions: PC-9, 48 h
[9] = test system: HCT-116; experiment: Antiproliferative activity against human HCT-116 cells measured after 48 hrs by MTT assay; assay type: functional, cell-based; conditions: HCT-116, 48 h
[10] = Acute toxicity in female ICR mouse assessed as pathological changes in intestine at 6.25 to 50 mg/kg measured by H and E staining method; assay type: organism-based; conditions: in vivo, dose 6.25-50 mg/kg
[11] = Acute toxicity in female ICR mouse assessed as pathological changes in liver at 6.25 to 50 mg/kg measured by H and E staining method; assay type: organism-based; conditions: in vivo, dose 6.25-50 mg/kg
[12] = Acute toxicity in female ICR mouse assessed as pathological changes in kidney at 6.25 to 50 mg/kg measured by H and E staining method; assay type: organism-based; conditions: in vivo, dose 6.25-50 mg/kg
[13] = test system: SK-BR-3; experiment: Antiproliferative activity against human SK-BR-3 cells measured after 48 hrs by MTT assay; assay type: functional, cell-based; conditions: SK-BR-3, 48 h
[14] = test system: PC-9; experiment: Induction of apoptosis in human PC-9 cells assessed as total apoptotic cells at 10 ug/ml measured after 48 hrs by AnnexinV-FITC/PI staining based flow cytometry (reference value: 6.99%); assay type: functional; conditions: dose 10 µg/ml
[15] = Acute toxicity in female ICR mouse assessed as pathological changes in heart at 6.25 to 50 mg/kg measured by H and E staining method; assay type: organism-based; conditions: in vivo, dose 6.25-50 mg/kg
[16] = test system: Huh-7; experiment: Antiproliferative activity against human Huh-7 cells measured after 48 hrs by MTT assay; assay type: functional, cell-based; conditions: Huh-7, 48 h
[17] = test system: NCI-H460; experiment: Antiproliferative activity against human NCI-H460 cells measured after 48 hrs by MTT assay; assay type: functional, cell-based; conditions: NCI-H460, 48 h
[18] = Acute toxicity in female ICR mouse assessed as changes in creatine kinase (CK) level in heart at 6.25 to 50 mg/kg; assay type: organism-based; conditions: in vivo, dose 6.25-50 mg/kg
[19] = test system: SK-OV-3; experiment: Antiproliferative activity against human SK-OV-3 cells measured after 48 hrs by MTT assay; assay type: functional, cell-based; conditions: SK-OV-3, 48 h
[20] = Acute toxicity in female ICR mouse assessed as changes in ALT level in liver at 6.25 to 50 mg/kg; assay type: organism-based; conditions: in vivo, dose 6.25-50 mg/kg
[21] = Acute toxicity in female ICR mouse assessed as pathological changes in lung at 6.25 to 50 mg/kg measured by H and E staining method; assay type: organism-based; conditions: in vivo, dose 6.25-50 mg/kg
[22] = test system: PC-9; experiment: Induction of apoptosis in human PC-9 cells assessed as total apoptotic cells at 3 ug/ml measured after 48 hrs by AnnexinV-FITC/PI staining based flow cytometry (reference value: 6.99%); assay type: functional; conditions: dose 3 µg/ml
[23] = Acute toxicity in female ICR mouse assessed as changes in AST level in liver at 6.25 to 50 mg/kg; assay type: organism-based; conditions: in vivo, dose 6.25-50 mg/kg
[24] = test system: PC-9; experiment: Induction of apoptosis in human PC-9 cells assessed as total apoptotic cells at 100 ug/ml measured after 48 hrs by AnnexinV-FITC/PI staining based flow cytometry (reference value: 6.99%); assay type: functional; conditions: dose 100 µg/ml
[25] = Acute toxicity in female ICR mouse assessed as changes in ALT level in liver at 25 mg/kg; assay type: organism-based; conditions: in vivo
[26] = Acute toxicity in female ICR mouse assessed as pathological changes in liver at 25 mg/kg measured by H and E staining method; assay type: organism-based; conditions: in vivo
[27] = Acute toxicity in female ICR mouse assessed as pathological changes in intestine at 25 mg/kg measured by H and E staining method; assay type: organism-based; conditions: in vivo
[28] = Acute toxicity in female ICR mouse assessed as pathological changes in kidney at 25 mg/kg measured by H and E staining method; assay type: organism-based; conditions: in vivo
[29] = Acute toxicity in female ICR mouse assessed as pathological changes in heart at 25 mg/kg measured by H and E staining method; assay type: organism-based; conditions: in vivo
[30] = Acute toxicity in female ICR mouse assessed as changes in AST level in liver at 25 mg/kg; assay type: organism-based; conditions: in vivo
[31] = Acute toxicity in female ICR mouse assessed as pathological changes in lung at 25 mg/kg measured by H and E staining method; assay type: organism-based; conditions: in vivo
[32] = Acute toxicity in female ICR mouse assessed as changes in creatine kinase (CK) level in heart at 25 mg/kg; assay type: organism-based; conditions: in vivo
[33] = Acute toxicity in female ICR mouse assessed as pathological changes in spleen at 25 mg/kg measured by H and E staining method; assay type: organism-based; conditions: in vivo

Compound `O=C1c2cccc(O)c2C(=O)c2c(O)cc(C(=O)N3CCN(C(=S)SCc4ccc(F)cc4)CC3)cc21` has an IC50 [1] greater than 100 µg/mL, an IC50 [2] of 36.4 µg/mL (≈ 67.8 µM) and a selectivity ratio [3] of 3.

`O=C1c2cccc(O)c2C(=O)c2c(O)cc(C(=O)N3CCN(C(=S)SCc4ccc(Cl)cc4)CC3)cc21` showed an IC50 [1] of 72.5 µg/mL (≈ 131 µM) and an IC50 [2] greater than 100 µg/mL.

`COC(=O)CSC(=S)N1CCN(C(=O)c2cc(O)c3c(c2)C(=O)c2cccc(O)c2C3=O)CC1` showed an IC50 [1] of 67 µg/mL (≈ 134 µM), an IC50 [2] of 31 µg/mL (≈ 61.9 µM) and a selectivity ratio [3] of 2.

`O=C1c2cccc(O)c2C(=O)c2c(O)cc(C(=O)N3CCN(C(=S)SCCCOc4ccccc4)CC3)cc21` gave an IC50 [1] greater than 100 µg/mL, an IC50 [2] greater than 100 µg/mL and a selectivity ratio [3] of 1.

`O=C(CSC(=S)N1CCN(C(=O)c2cc(O)c3c(c2)C(=O)c2cccc(O)c2C3=O)CC1)OCc1ccccc1` gave an IC50 [1] greater than 100 µg/mL, an IC50 [2] of 29.8 µg/mL (≈ 51.7 µM) and a selectivity ratio [3] of 3.

In the case of `CCOC(=O)CCCSC(=S)N1CCN(C(=O)c2cc(O)c3c(c2)C(=O)c2cccc(O)c2C3=O)CC1`, the IC50 [4] is reported as 30.6 µg/mL (≈ 56.4 µM), the IC50 [5] is reported as 23.8 µg/mL (≈ 43.8 µM) and the IC50 [6] is reported as 30.1 µg/mL (≈ 55.6 µM). The Activity [7] was “Non-Toxic”, the IC50 [8] was 10.8 µg/mL (≈ 19.9 µM) and the IC50 [9] was 25.9 µg/mL (≈ 47.7 µM). The Activity [10] was “Non-Toxic”, the Activity [11] was “Non-Toxic” and the Activity [12] was “Non-Toxic”. The IC50 [1] was 55.3 µg/mL (≈ 102 µM), the IC50 [13] was 52 µg/mL (≈ 95.8 µM) and the Activity [14] was 28.97%. For the same compound, the Activity [15] was “Non-Toxic”, the IC50 [16] was 23.8 µg/mL (≈ 44 µM) and the IC50 [17] was 23 µg/mL (≈ 42.4 µM). The Activity [18] was “Non-Toxic”, the IC50 [2] was 10.9 µg/mL (≈ 20.1 µM) and the IC50 [19] was 35.5 µg/mL (≈ 65.4 µM). The Activity [20] was “Non-Toxic”, the Activity [21] was “Non-Toxic” and the Activity [22] was 13.22%. The Activity [23] was “Non-Toxic”, the Activity [24] was 47.06% and the selectivity ratio [3] was 5.

Work on `C=CCSC(=S)N1CCN(C(=O)c2cc(O)c3c(c2)C(=O)c2cccc(O)c2C3=O)CC1` yielded an IC50 [1] greater than 100 µg/mL, an IC50 [2] of 40.5 µg/mL (≈ 86.5 µM) and a selectivity ratio [3] of 3.

Work on `Cc1ccc(CSC(=S)N2CCN(C(=O)c3cc(O)c4c(c3)C(=O)c3cccc(O)c3C4=O)CC2)cc1` yielded an IC50 [1] greater than 100 µg/mL, an IC50 [2] greater than 100 µg/mL and a selectivity ratio [3] of 1.

In the case of `O=C1c2cccc(O)c2C(=O)c2c(O)cc(C(=O)N3CCN(C(=S)SCc4ccccc4)CC3)cc21`, the IC50 [1] is reported as 48.8 µg/mL (≈ 94 µM), the IC50 [2] is reported as 78.6 µg/mL (≈ 152 µM) and the selectivity ratio [3] is reported as 1.

Compound `O=C1c2cccc(O)c2C(=O)c2c(O)cc(C(=O)N3CCN(C(=S)SCc4ccc(C(F)(F)F)cc4)CC3)cc21` has an IC50 [1] greater than 100 µg/mL, an IC50 [2] greater than 100 µg/mL and a selectivity ratio [3] of 1.

Work on `Nc1ccn([C@@H]2O[C@H](CO)[C@@H](O)[C@@H]2O)c(=O)n1` [CYTARABINE] yielded an IC50 [1] greater than 100 µg/mL, an IC50 [2] of 49.3 µg/mL (≈ 203 µM) and a selectivity ratio [3] of 2.

With `COc1cccc2c1C(=O)c1c(O)c3c(c(O)c1C2=O)C[C@@](O)(C(=O)CO)C[C@@H]3O[C@H]1C[C@H](N)[C@H](O)[C@H](C)O1` [DOXORUBICIN] the IC50 [1] was 0.079 µg/mL (≈ 0.145 µM) and the IC50 [2] was 0.665 µg/mL (≈ 1.22 µM).

For `O=C(O)c1cc(O)c2c(c1)C(=O)c1cccc(O)c1C2=O` [RHEIN], the Activity [25] was “Non-Toxic”, the Activity [26] was “Non-Toxic” and the IC50 [1] was 92.3 µg/mL (≈ 325 µM). The Activity [27] was “Non-Toxic”, the Activity [28] was “Non-Toxic” and the Activity [29] was “Non-Toxic”. For the same compound, the Activity [30] was “Non-Toxic”, the Activity [31] was “Non-Toxic” and the IC50 [2] was 77.1 µg/mL (≈ 271 µM). The Activity [32] was “Non-Toxic”, the selectivity ratio [3] was 1 and the Activity [33] was “Non-Toxic”.
